Counter-ions that a name gives are not always drawn. Like-named read-outs stand apart in the source and are kept apart here.
Columns and labels:
in vivo = assay: in vivo
Procedure: (§1) 2-(o-carboxyphenylamino)-6-H-pyrimido(2,1-b)-quinazolone-6 and its derivatives were tested for acute toxicity.
(§2) Acute toxicity of 2-(o-carboxyphenylamino)-6H-pyrimido(2,1-b)-quinazolone-6and its derivatives was determined in intra-abdominal and peroral administration; for cats in peroral administration. […] The statistical analysis of obtained data was carried out in accordance with the method of Litchfield, Wilcockson and Van der Waerden.

[1] = Acute toxicity in rabbits (LD50); details: rabbit, in vivo, ip, rabbits, intra-abdominal, Van der Waerden
Procedure: as §1, §2

[2] = Acute toxicity in cats (LD50); details: cat, in vivo, po
Procedure: as §1, §2

rats = assay: in vivo; details: rat, 168 h
Procedure: as §1, §2

white mice = assay: in vivo; details: mouse, 168 h
Procedure: as §1, §2

rabbits = assay: Acute toxicity in rabbits (LD50); details: rabbit, in vivo, 10080 min
Procedure: as §1, §2

[3] = test system: formalin edema of a foot in the rat; details: for other symptoms of inflammation (hyperemia, painfulness) and formation of necrotic foci: formalin inflammation
Procedure: (§3) The growth of foot endema in the rat was registered in dynamics after each hour from the moment of subplantar administration of a stimulus during 5 hours. Percentage of inhibition of the foor emeda in the rat was calculated from the following formula: [formula] where
(§4) Vk is the volume of a control edematic foot minus the initial volume of the same foot prior to edema;
(§5) Vo is the volume of the tested edematic foot minus the initial volume of the same foot prior to edema.

carrageenin edema = test system: carrageenin edema
Procedure: as §3, §4, §5
A carrageenin edema was induced by subplantar administration in rats of 0.1 ml 1% solution of carrageenin (polysaccharide prepared from Iceland or pearl moss).

cotton granuloma = assay: whole plant or invertebrate
Text: The term "cotton granuloma" means hereinafter the formation of a granular-fibrous tissue around cotton balls implanted into experimental animals.

[4] = test system: threshold of pain sensitivity in contact-heat stimulation
pyrogenal fever = assay: Antipyretic effect in pyrogenal fever; details: rats
Procedure: Antipyretic effect of 2-(o-carboxyphenylamino)-6H-pyrimido(2,1-b)-quinazolone-6 and its derivatives were investigated in rats suffering from pyrogenal fever. Maximum decrease in the temperature (degrees) was determined.

ovalbumin edema = assay: Ovalbumin edema of rat foot; type: in vivo, rats; details: 1/10 LD50 intra-abdominal
Procedure: An ovalbumin edema was induced by subplantar administration in rats of egg albumin (0.1 ml per foot). The edema developed very intensely, i.e. reached the maximum magnitude (191%) as soon as 1 hour following the injection of ovalbumin, and completely disappeared by the end of the day.
The preparations under studies were administered in the given investigations in a dose corresponding to 1/10LD50 for the rats in the intra-abdominal administration.

Solubility = type: physicochemical
[5] = rat, in vivo, ip, hydrochloride
[6] = read-out: Percentage of inhibition (cotton granuloma)

## O=C(O)c1ccccc1Nc1ccn2c(=O)c3ccccc3nc2n1
In vivo; mouse, ip
  LD50 at 168 h: 1050 mg/kg
In vivo; mouse, po
  LD50 at 168 h: 3400 mg/kg
In vivo; rat, ip
  LD50 at 168 h: 980 mg/kg
In vivo; rat, po
  LD50 at 168 h: 3800 mg/kg
[1]
  LD50 at 168 h: 1750 mg/kg
[2]
  LD50 at 168 h: 5000 mg/kg

## COC(=O)c1ccccc1Nc1ccn2c(=O)c3ccccc3nc2n1
In vivo; mouse, ip
  LD50 at 168 h: 1160 mg/kg

## O=C(O)c1ccccc1Nc1ccn2c(=O)c3ccccc3nc2n1 [2-(o-carboxyphenylamino)6H-pyrimido(2,1-b)-quinazolone-6 hydrochloride]
rats; ip
  LD50: 980 mg/kg
rats; po
  LD50: 3800 mg/kg
White mice; ip
  LD50: 1050 mg/kg
White mice; po
  LD50: 3400 mg/kg
rabbits; ip
  LD50: 1750 mg/kg
rabbits; po, hydrochloride
  LD50: 500 mg/kg
[3]; 5 mg/kg intra-abdominal
  Percentage of inhibition (formalin edema): 31%
[3]; 10 mg/kg intra-abdominal
  Percentage of inhibition (formalin edema): 50%
[3]; 49 mg/kg intra-abdominal
  Percentage of inhibition (formalin edema): 57%
[3]; 98 mg/kg intra-abdominal
  Percentage of inhibition (formalin edema): 71%
[3]; comparison of preparations
  depression of formalin edema of a foot in the rat (in words): the most actively depressed
[3]; [5]
  Therapeutic index (formalin edema): 61.2
Carrageenin edema; 25 mg/kg intra-abdominal
  Percentage of inhibition (carrageenin edema): 12%
Carrageenin edema; 49 mg/kg intra-abdominal
  Percentage of inhibition (carrageenin edema): 26%
Carrageenin edema; 98 mg/kg intra-abdominal
  Percentage of inhibition (carrageenin edema): 55%
Carrageenin edema; [5]
  Therapeutic index (carrageenin edema): 10.9
Cotton granuloma; 48 mg/kg
  Percentage of inhibition (cotton granuloma): 18%
Cotton granuloma; 95 mg/kg
  Percentage of inhibition (cotton granuloma): 24%
Cotton granuloma; 190 mg/kg
  Percentage of inhibition (cotton granuloma): 52%
Cotton granuloma; cotton granuloma
  antiproliferative effect (in words): the most effective among the given preparations
  pharmacotherapeutic width of effect relative to mephenamine acid, sodium salicylate, and phenylbutazone: three times
Cotton granuloma; in vivo, hydrochloride
  Therapeutic index (cotton granuloma): 22.3
[4]; 52 mg/kg, hydrochloride
  Increase in latent period of pain reaction in mice: 31%
[4]; 105 mg/kg, hydrochloride
  Increase in latent period of pain reaction in mice: 52%
[4]; 157 mg/kg, hydrochloride
  Increase in latent period of pain reaction in mice: 62%
[4]; mouse, in vivo, hydrochloride
  Therapeutic index (analgetic activity): 11.0
Pyrogenal fever; 5% of LD50 (hydrochloride's dose not printed separately)
  Antipyretic effect (maximum decrease in temperature): 1.4 °C

## CNC(=O)c1ccccc1Nc1ccn2c(=O)c3ccccc3nc2n1 [2-(o-methylcarbamidephenylamino)-6H-pyrimido(2,1-b)-quinazolone-6]
In vivo; mouse, ip
  LD50 at 168 h: 3000 mg/kg

## CC(C)Cc1ccc(C(C)C(=O)O)cc1 (centres unmarked) [Bruphen, 2-(para-isobutylphenyl)-propionic acid]
Pyrogenal fever; 70% of LD50
  Antipyretic effect (maximum decrease in temperature): 1.3 °C

## COc1ccc2c(c1)c(CC(=O)O)c(C)n2C(=O)c1ccc(Cl)cc1 [Indomethacin, 1-(para-chlorobenzoyl)5-methoxy-2-methyl-indole-3-acetic acid]
Pyrogenal fever; 70% of LD50
  Antipyretic effect (maximum decrease in temperature): 0.7 °C

## Cc1cccc(Nc2ccccc2C(=O)O)c1C [Mephenamine acid, N--(2,3-dimethylphenyl) anthranilic acid]
[3]; 9 mg/kg intra-abdominal
  Percentage of inhibition (formalin edema): 22%
[3]; 18 mg/kg intra-abdominal
  Percentage of inhibition (formalin edema): 24%
[3]; 36 mg/kg intra-abdominal
  Percentage of inhibition (formalin edema): 31%
[3]; 72 mg/kg intra-abdominal
  Percentage of inhibition (formalin edema): 33%
[3]
  other symptoms of inflammation (hyperemia, painfulness) and formation of necrotic foci: almost noncharacteristic
Carrageenin edema; 25 mg/kg intra-abdominal
  Percentage of inhibition (carrageenin edema): 33%
Carrageenin edema; 50 mg/kg intra-abdominal
  Percentage of inhibition (carrageenin edema): 44%
Carrageenin edema; 100 mg/kg intra-abdominal
  Percentage of inhibition (carrageenin edema): 50%
Cotton granuloma; cotton granuloma
  antiproliferative effect (in words): the most effective among the given preparations
[4]; 3.5 mg/kg
  Increase in latent period of pain reaction in mice: 18%
[4]; 7.0 mg/kg
  Increase in latent period of pain reaction in mice: 36%
[4]; 15 mg/kg
  Increase in latent period of pain reaction in mice: 43%
[4]; contact-heat stimulation
  analgetic activity (in words): possessed the most expressed analgetic effect
Pyrogenal fever; 70% of LD50
  Antipyretic effect (maximum decrease in temperature): 1.2 °C

## CCCCC1C(=O)N(c2ccccc2)N(c2ccccc2)C1=O [Phenylbutazone, 1,2-diphenyl-4-butyl pyrazolidine-dion-3,5]
[3]; 21 mg/kg intra-abdominal
  Percentage of inhibition (formalin edema): 17%
[3]; 42 mg/kg intra-abdominal
  Percentage of inhibition (formalin edema): 40%
[3]; 82 mg/kg intra-abdominal
  Percentage of inhibition (formalin edema): 51%
Carrageenin edema; 21 mg/kg intra-abdominal
  Percentage of inhibition (carrageenin edema): 27%
Carrageenin edema; 42 mg/kg intra-abdominal
  Percentage of inhibition (carrageenin edema): 44%
Carrageenin edema; 84 mg/kg intra-abdominal
  Percentage of inhibition (carrageenin edema): 51%
Ovalbumin edema
  antiexudative / antiinflammatory effect in ovalbumin edema (in words): did not produce antiedematic effect
[4]; 25 mg/kg
  Increase in latent period of pain reaction in mice: 8%
[4]; 50 mg/kg
  Increase in latent period of pain reaction in mice: 43%
[4]; 100 mg/kg
  Increase in latent period of pain reaction in mice: 92%

## O=C(O)c1ccccc1O [Sodium salicylate, 6-oxybenzoic acid, sodium salt]
[3]; 65 mg/kg intra-abdominal
  Percentage of inhibition (formalin edema): 14%
[3]; 130 mg/kg intra-abdominal
  Percentage of inhibition (formalin edema): 24%
[3]; 260 mg/kg intra-abdominal
  Percentage of inhibition (formalin edema): 41%
[3]; LD50/ED50, intra-abdominal
  Therapeutic index (formalin edema): 1.8
[3]
  other symptoms of inflammation (hyperemia, painfulness) and formation of necrotic foci: almost noncharacteristic
Carrageenin edema; 65 mg/kg intra-abdominal
  Percentage of inhibition (carrageenin edema): 14%
Carrageenin edema; 90 mg/kg intra-abdominal
  Percentage of inhibition (carrageenin edema): 32%
Carrageenin edema; 130 mg/kg intra-abdominal
  Percentage of inhibition (carrageenin edema): 56%
Carrageenin edema; LD50/ED50, intra-abdominal
  Therapeutic index (carrageenin edema): 5.6
Cotton granuloma; LD50/ED50
  Therapeutic index (cotton granuloma): 7.27
Cotton granuloma; [6]
  inhibition at 60 mg/kg: 8%
  inhibition at 80 mg/kg: 20%
  inhibition at 160 mg/kg: 36%
  inhibition at 240 mg/kg: 52%
[4]; 32 mg/kg
  Increase in latent period of pain reaction in mice: 28%
[4]; 65 mg/kg
  Increase in latent period of pain reaction in mice: 38%
[4]; 130 mg/kg
  Increase in latent period of pain reaction in mice: 59%
[4]; LD50/ED50, contact-heat stimulation
  Therapeutic index (analgetic activity): 5.9

## O=C(O)c1ccccc1Nc1ccn2c(=O)c3ccccc3nc2n1 [ethanol ammonium salt of 2-(o-carboxyphenylamino)-6H-pyrimid]
Solubility
  solubility (in words): soluble in water

Reference: patent publication US4455312A
